Reference: the NIST ThermoML archive (doi:10.1016/j.fluid.2014.04.004)
± gives the expanded uncertainty stated by the source.

Tests used:
[1] = Liquid, Closed cell (Static) method
[2] = excess molar enthalpy (molar enthalpy of mixing); xn = mol fraction of the nth substance listed; conditions: 303.15 K, 101 kPa, Liquid, Calvet calorimetry

Cc1cncc(C)c1 [3,5-dimethylpyridine]
[1]
Conditions	vapor or sublimation pressure [kPa]
273.5 K	0.04 ± 0.001
283.45 K	0.085 ± 0.002
293.47 K	0.172 ± 0.002
303.54 K	0.331 ± 0.004
313.56 K	0.612 ± 0.006
323.59 K	1.078 ± 0.01
333.66 K	1.824 ± 0.011
343.62 K	2.973 ± 0.014
353.63 K	4.688 ± 0.018

C1CCCCC1 [cyclohexane]
[1]
Conditions	vapor or sublimation pressure [kPa]
283.32 K	6.389 ± 0.023
288.28 K	8.195 ± 0.026
293.27 K	10.42 ± 0.031
298.25 K	13.17 ± 0.037
303.27 K	16.45 ± 0.046
313.24 K	24.97 ± 0.062
323.21 K	36.72 ± 0.086
333.21 K	52.48 ± 0.12
343.18 K	72.98 ± 0.15
353.14 K	99.11 ± 0.2

Cc1cccc(C)n1 [2,6-dimethylpyridine] + C1CCCCC1
[2]
Conditions	excess molar enthalpy [kcal/mol]
x1 = 0.09	0.123 ± 0.00263
x1 = 0.22	0.239 ± 0.00311
x1 = 0.275	0.269 ± 0.00311
x1 = 0.308	0.281 ± 0.00311
x1 = 0.434	0.299 ± 0.00335
x1 = 0.529	0.283 ± 0.00335
x1 = 0.669	0.226 ± 0.00287
x1 = 0.806	0.142 ± 0.00263
x1 = 0.8998	0.0748 ± 0.00263

Cc1cncc(C)c1 [3,5-dimethylpyridine] + C1CCCCC1
[2]
Conditions	excess molar enthalpy [kcal/mol]
x1 = 0.085	0.112 ± 0.00263
x1 = 0.221	0.227 ± 0.00311
x1 = 0.312	0.276 ± 0.00311
x1 = 0.386	0.295 ± 0.00335
x1 = 0.515	0.306 ± 0.00335
x1 = 0.635	0.279 ± 0.00311
x1 = 0.735	0.217 ± 0.00287
x1 = 0.83	0.149 ± 0.00263
x1 = 0.899	0.0951 ± 0.00263

Cc1cccc(C)n1 [2,6-dimethylpyridine]
[1]
Conditions	vapor or sublimation pressure [kPa]
283.37 K	0.3 ± 0.004
288.33 K	0.42 ± 0.004
293.3 K	0.581 ± 0.006
298.3 K	0.794 ± 0.007
303.27 K	1.07 ± 0.01
313.27 K	1.879 ± 0.012
323.24 K	3.163 ± 0.015
333.21 K	5.14 ± 0.019
343.2 K	8.101 ± 0.026
353.14 K	12.23 ± 0.034
